Drawing on patent EP1179538A1, “PEPTIDES BLOCKING RESPONSE TO CHEMICAL SUBSTANCES OR THERMAL STIMULI OR NOCICEPTOR INFLAMMATION MEDIATORS AND COMPOSITIONS CONTAINING SAID PEPTIDES” (Universidad Miguel Hernandez de Elche, priority 1999, dated 2002), this text covers IC50 for three compounds.

Peptide text beside a SMILES is read from it.

In the test the target is VR1 nocireceptor. The test is described as follows: Blockage of capsaicin-activated ionic current in X. laevis ovocites expressing the VR1 nocireceptor (two-microelectrode voltage clamp). It counts as cell-based. The conditions noted are these: VR1 expressed in X. laevis ovocites; activated by capsaicin 20 µM; transmembrane voltage -80 mV; read-out: peptide concentrations that inhibited half of the VR1 response (IC50). The source says:
This test comprises contacting X. laevi ovocites expressing the VR1 nocireceptor with an agonist (ligand) for said VR1 nocireceptor, for example, capsaicin, in the presence or absence of the compound to be tested, maintaining the transmembrane voltage constant at -80 mV, and detecting the inhibiting activity of said compound to be tested by measuring the agonist-activated ionic current in the presence and absence of the compound to be tested. The power and effectiveness of the inhibiting activity of the compound to be tested can be determined by obtaining the dosage-response curves. To achieve this, the magnitude of the capsaicin-activated ionic current blockage is examined in X. laevi ovocites that express the VR1 nocireceptor in the presence of the growing concentrations of the compound to be tested. The ratio of ionic current intensities in the presence and absence of the compound to be tested permits the obtention of dosage-response curves (19,20). These graphs can be adjusted to logarithmic functions to determine the maximum blockage (power) and the antagonist concentration produced by half the maximum blockage (IC50 effective).
In order to evaluate the biological activity of peptides obtained in Example 1.1 a test was developed to evaluate the power of said peptides blocking the agonist-activated ionic current in X. laevis ovocites that express the VR1 nocireceptor.
The heterologous expression of receptors in X. laevis ovocites can be carried out according to the procedure described by Ferrer-Montiel and Montal (19). […] The capsaicin agonist-activated ionic currents are recorded with the maintenance of the constant voltage technique with two microelectrodes (two-microelectrode voltage clamp) (19, 20). […] The inhibiting activity is detected by measuring the agonist -activated ionic current in the presence and absence of the peptides.
The power and effectiveness of the peptide inhibiting activity is determined by means of the obtention of dosage-response curves. […]

As for `N=C(N)NCCC[C@H](NC(=O)[C@H](CCCNC(=N)N)NC(=O)[C@H](Cc1ccc(O)cc1)NC(=O)[C@H](Cc1ccc(O)cc1)NC(=O)[C@@H](N)CCCNC(=N)N)C(=O)N[C@@H](Cc1c[nH]c2ccccc12)C(=O)O` [SEC. ID. N1: 3, Arg-Tyr-Tyr-Arg-Arg-Trp] (H-RYYRRW-OH), the IC50 was approximately 10000 nM.
As for `CC[C@H](C)[C@H](NC(=O)[C@H](Cc1c[nH]c2ccccc12)NC(=O)[C@H](Cc1c[nH]c2ccccc12)NC(=O)[C@H](CCCNC(=N)N)NC(=O)[C@@H](N)CCCNC(=N)N)C(=O)N[C@@H](CCCNC(=N)N)C(=O)O` [SEC. ID. N1: 2, Arg-Arg-Trp-Trp-Ile-Arg] (H-RRWWIR-OH), the IC50 was approximately 2000 nM.
Consider `N=C(N)NCCC[C@H](NC(=O)[C@H](CCCNC(=N)N)NC(=O)[C@H](CCCNC(=N)N)NC(=O)[C@@H](N)CCCNC(=N)N)C(=O)N[C@@H](Cc1c[nH]c2ccccc12)C(=O)N[C@@H](Cc1c[nH]c2ccccc12)C(=O)O` [SEC. ID. N1: 1, Arg-Arg-Arg-Arg-Trp-Trp] (H-RRRRWW-OH), for which the IC50 was approximately 100 nM.
